This assay deals with T1, Human serum albumin (HSA) (Homo sapiens, UniProt P02768).
T1 construct: gene ALB
The assay can be described thus: intrinsic fluorescence quenching (Stern-Volmer, Klotz Ka), dansyl amino acid marker displacement, far UV-CD. It is filed as binding. To be noted: read-out: λex 275 nm / Ka [mol^-1.L] ± SD ^1.

T1 sequence (P02768 25-609): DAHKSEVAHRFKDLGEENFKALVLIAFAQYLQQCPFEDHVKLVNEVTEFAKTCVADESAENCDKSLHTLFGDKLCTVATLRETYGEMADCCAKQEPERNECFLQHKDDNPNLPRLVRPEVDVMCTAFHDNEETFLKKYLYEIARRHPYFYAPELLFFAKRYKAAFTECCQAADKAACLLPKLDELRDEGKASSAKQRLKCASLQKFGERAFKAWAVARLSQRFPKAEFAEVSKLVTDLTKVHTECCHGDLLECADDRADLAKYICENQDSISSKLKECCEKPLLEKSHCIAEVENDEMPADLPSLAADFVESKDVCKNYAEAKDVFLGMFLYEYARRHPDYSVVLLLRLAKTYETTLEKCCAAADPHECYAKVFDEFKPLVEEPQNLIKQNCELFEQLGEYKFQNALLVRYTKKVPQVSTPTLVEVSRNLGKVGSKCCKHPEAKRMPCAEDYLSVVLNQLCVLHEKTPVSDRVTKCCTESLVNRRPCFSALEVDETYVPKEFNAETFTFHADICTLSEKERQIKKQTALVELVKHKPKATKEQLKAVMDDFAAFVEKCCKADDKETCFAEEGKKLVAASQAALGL

Take `c1cnc(N2c3ccncc3Sc3ncccc32)nc1` [10-Pyr-3,6-DAPT, 10-(2′-pyrimidyl)-3,6-diazaphenothiazine]: the Kd was 19.1 µM.

These data come from publication PMC11767950, “Human Serum Albumin and Human Serum Albumin Nanoparticles as Carriers of 10-(2′-Pyrimidyl)-3,6-diazaphenothiazine: In Vitro Spectroscopic Studies” (Molecules, 2025).
